Tested on: colon of patients scheduled for colonoscopy
Assay: Quality of colon cleaning assessed by Boston Scale at colonoscopy
Type: in vivo
Conditions: within the claimed regimen, result in words
Method: A prospective, open-label study involving four patients scheduled for their regular colonoscopy exam was conducted (Canadian Phase Onward Inc., Toronto, Ontario. CA). […] In addition to the standard instructions not to eat food and to drink only clear liquids, the selected patients were instructed to do the following on the day before the colonoscopy was to be performed: 1. at 10:00 AM orally taking three bisacodyl pills (Dulcolax®, Boehringer Ingelheim, Ingelheim am Rhein, Germany) with water (chewing or crushing the pills was prohibited); 2. at 3:00 PM dissolving the contents of a first sachet containing sodium picosulfate/magnesium oxide/citric acid combination ([…]®, Recordati S.p.A, Milan, Italy) with cold water and ingesting the solution after carefully stirring the solution to insure that the sodium picosulfate/magnesium oxide/citric acid combination was dissolved completely; […] […] Upon arrival at the clinic on the day of the colonoscopy, the patient's weight was recorded and blood pressure was taken and recorded and an out-patient colonoscopy was performed on each patient (North York Endoscopy Centre Inc., Toronto, Ontario, CA). The quality of the colon cleaning was assessed using the Boston Scale which is a well-established way of identifying the degree of colon cleanliness.

CC(=O)Oc1ccc(C(c2ccc(OC(C)=O)cc2)c2ccccn2)cc1 [bisacodyl, ρ,ρ-diacetoxy-diphenyl-2-pyridylmethane]
observed cleansing effect of the regimen component: initial expulsion of the bulk of the fecal matter

— patent US20220143079A1, “ORAL ADMINISTRATION OF SODIUM CHLORIDE TO PREVENT COMPLICATIONS ASSOCIATED WITH BOWEL CLEANSING WITH STIMULANT LAXATIVES” (SEAFORD PHARMACEUTICALS INC., priority 2019, published 2022)
